For one series, the target named is T1, TEC (Homo sapiens, UniProt P42680).
T1 sequence (P42680 1-631): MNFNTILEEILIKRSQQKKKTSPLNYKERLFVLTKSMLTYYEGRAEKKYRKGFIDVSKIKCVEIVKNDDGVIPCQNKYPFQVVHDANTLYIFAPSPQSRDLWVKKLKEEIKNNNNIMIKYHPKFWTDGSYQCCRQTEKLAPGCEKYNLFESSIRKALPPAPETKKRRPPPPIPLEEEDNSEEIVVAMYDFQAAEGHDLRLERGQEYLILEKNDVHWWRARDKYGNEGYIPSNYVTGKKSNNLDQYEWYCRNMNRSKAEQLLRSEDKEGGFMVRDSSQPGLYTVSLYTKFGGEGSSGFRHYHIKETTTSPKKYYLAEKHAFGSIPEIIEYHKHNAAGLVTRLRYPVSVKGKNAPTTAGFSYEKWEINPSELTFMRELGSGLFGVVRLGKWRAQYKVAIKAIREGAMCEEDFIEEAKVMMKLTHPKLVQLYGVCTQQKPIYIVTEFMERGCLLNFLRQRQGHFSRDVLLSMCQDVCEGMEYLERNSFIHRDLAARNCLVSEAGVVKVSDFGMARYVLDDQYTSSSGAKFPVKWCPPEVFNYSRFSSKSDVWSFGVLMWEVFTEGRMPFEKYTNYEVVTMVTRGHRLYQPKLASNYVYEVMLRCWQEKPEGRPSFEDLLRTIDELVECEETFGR
Nature of the series: Screening for TEC inhibitory activity. It is filed as biochemical. As for the experimental part:
1.3 Screening for TEC Inhibitory Activity
50 ng/μL TEC stock solution was diluted with kinase buffer (50 mM HEPES, 10 mM MgCl2, 2 mM DTT, 1 mM EGTA, 0.01% Tween 20), and 6 μL of 1.67× working solution at […] (final concentration: 0.008 ng/μL) was added to each well. Different compounds dissolved in DMSO were added to the wells using a nanoliter pipettor, resulting in the final concentration of 1000 nM to 0.24 nM (4-fold gradient for 7 concentrations in total), and blank control wells (without enzyme) and negative control wells (with enzyme, plus vehicle DMSO) were set. After enzyme was reacted with the compound or vehicle for 30 min, 5×ATP at 50 μM (final concentration: 10 μM) prepared with kinase buffer was mixed with 5× substrate at 0.5 μM (final concentration: 0.1 μM, ULight-poly GT) at a ratio of 1:1, and the mixture was added to each well at 4 μL/well. After being sealed with a film, the plate was incubated at room temperature for 2 h, then 5 μL of 4×EDTA at 40 mM (final concentration: 10 mM) was added to each well. After the plate was incubated for 5 min at room temperature, 5 μL of 4× detection reagent at 8 nM (final concentration: 2 nM, Eu-anti-phospho-tyrosine antibody) was added to each well, followed by incubation at room temperature for 1 h. The plate was read using a PE Envision multi-functional microplate reader (excitation: 320 nm, emission: 665 nm), and IC50 was calculated by four-parameter fitting.

The nature of series [1]: Rat liver microsome metabolic stability. The series is classed as in vitro ADME. The following applies: rat liver microsomes. As for the experimental part: 3.3 Rat Liver Microsome Assay
300 μL of final incubation system: 30 μL of rat liver microsomes (protein concentration: 5 mg/mL, XENOTECH, USA), 30 μL of NADPH (10 mM)+MgCl2 (5 mM), 3 μL of the substrate, i.e., the example compound (dissolved in 50% aqueous acetonitrile solution, 100 μM), and 237 μL of PBS buffer, wherein the proportion of the organic solvent (acetonitrile) was 0.5%. Each tube was added with 270 μL of a mixed solution of substrate and enzyme, and after being pre-incubated at 37° C. for 5 min, added with 30 μL of NADPH+MgCl2. Then 50 μL of the mixture was taken at 0 min, 15 min, 30 min and 60 min, and added with 300 μL of diazepam glacial acetonitrile (20 ng/mL) containing an internal standard to quench the reaction. The reaction mixture was vortexed for 5 min, and centrifuged (13,000 rpm, 4° C.) for 10 min. 100 μL of supernatant was pipetted into a sample vial, from which 1 μL of supernatant was injected and analyzed by LC-MS/MS, and the remaining percentage was calculated.
(In general: Liver microsomes are a subcellular fraction often used to study metabolism.)

For a further series, the system named is OCI-LY10 cells. Briefly: In vivo pharmacodynamic study, OCI-LY10 xenograft. The following applies: for TGI (%): tumor growth inhibition from tumor weight, 23 days; for TGI (%) / d0 TV Mean ± SD: 50 mg/kg bid i.g.; for d0 TV Mean ± SD: tumor volume at day 0 (grouping); for d21 TV Mean ± SD: tumor volume at day 21, 50 mg/kg bid i.g.; for d23 TV Mean ± SD: tumor volume at day 23, 50 mg/kg bid i.g. More on the design: species or system NOD-SCID mice. Here is the method: EXPERIMENTAL EXAMPLE 5: IN VIVO PHARMACODYNAMIC STUDY
OCI-LY10 cells were subcutaneously grafted (concentration: 1×10^8/mL×0.1 mL/mice) in NOD-SCID mice at the right side armpit (the inoculated site was shaved upon grafting) under aseptic conditions. After subcutaneous grafting, the animals were grouped when the tumor volume reached about 100-300 mm^3:
Model group: vehicle: 6 mice; I-1: 6 mice, 50 mg/kg, bid, i.g.; I-3: 6 mice, 50 mg/kg, bid, i.g.
The vehicle or compound was administered by intragastric administration at a volume of 10 mL/kg, twice daily, for 23 days. The tumor volume was measured 2-3 times per week, and the mice were weighed at the same time, with the data recorded. Animal behavior was observed daily. After all administration was completed, the animals were executed, stripped of tumors and weighed.
The tumor volume and the tumor growth inhibition were calculated using the following formulas: Tumor volume(TV)=(Length×Width^2)/2. Tumor growth inhibition(TGI)=(1−tumor weight in treatment group/tumor weight in model group)×100%.

For the compound `CC#CC(=O)N1[C@@H]2COC[C@@H]2C[C@H]1c1nc(-c2ccc(C(=O)Nc3ccccn3)cc2)c2c(N)nccn12` [Compound I-1, 4-(8-amino-3-((2S,3aR,6aS)-1-(but-2-ynoyl)hexahydro-1H-furo[3,4-b]pyrrol-2-yl)imidazo [1,5-a]pyrazin-1-yl)-N-(pyridin-2-yl)benzamide], half-maximal inhibition at TEC (IC50) required 155 nM. For the same compound, the “Rat (RLM) Remaining % (T = 60 min)” value in series [1] is on record as 30%. Further, in the series on OCI-LY10 cells, the “TGI (%)” value amounted to 79.4%, the “d0 TV Mean ± SD” value was found to be 176 ± 35 mm^3, the “d21 TV Mean ± SD” value is 742 ± 109 mm^3 and the “d23 TV Mean ± SD” value was 847 ± 189 mm^3.
As for `C=CC(=O)N1[C@@H]2COC[C@@H]2C[C@H]1c1nc(-c2ccc(C(=O)Nc3ccccn3)cc2)c2c(N)nccn12` [Compound I-3, 4-(3-((2S,3AR,6AS)-1-ACRYLOYLHEXAHYDRO-1H-FURO[3,4-B]PYRROL-2-YL)-8-AMINOIMIDAZO [1,5-A]PYRAZIN-1-YL)-N-(PYRIDIN-2-YL)BENZAMIDE], 111 nM corresponded to half-maximal inhibition against TEC (IC50). Also, the “Rat (RLM) Remaining % (T = 60 min)” value in series [1] stood at 42%. Besides, in the series on OCI-LY10 cells, the “TGI (%)” value was 84.1%, the “d0 TV Mean ± SD” value is listed as 177 ± 16 mm^3, the “d21 TV Mean ± SD” value was determined as 645 ± 202 mm^3 and the “d23 TV Mean ± SD” value is given as 647 ± 343 mm^3.
Consider `CC#CC(=O)N1[C@@H]2COC[C@@H]2C[C@H]1c1nc(-c2ccc(C(=O)Nc3cc(C(F)(F)F)ccn3)cc2F)c2c(N)nccn12` [Compound I-4, 4-(8-AMINO-3-((2S,3AR,6AS)-1-(BUT-2-YNOYL)HEXAHYDRO-1H-FURO[3,4-B]PYRROL-2-YL)IMIDAZO[1,5-A]PYRAZIN-1-YL)-3-FLUORO-N-(4-(TRIFLUOROMETHYL)PYRIDIN-2-YL)BENZAMIDE], for which 25 nM corresponded to half-maximal inhibition at TEC (IC50). The “Rat (RLM) Remaining % (T = 60 min)” value in series [1] worked out at 26%.
Take `Nc1nccn2c([C@@H]3C[C@H]4COC[C@H]4N3C(=O)C3CC3)nc(-c3ccc(C(=O)Nc4cc(C(F)(F)F)ccn4)cc3F)c12` [Compound I-7, 4-(8-AMINO-3-((2S,3AR,6AS)-1-(CYCLOPROPANECARBONYL)HEXAHYDRO-1H-FURO[3,4-B]PYRROL-2-YL)IMIDAZO[1,5-A]PYRAZIN-1-YL)-3-FLUORO-N-(4-(TRIFLUOROMETHYL)PYRIDIN-2-YL)BENZAMIDE]: the “Rat (RLM) Remaining % (T = 60 min)” value in series [1] worked out at 33.9%.

A word on the IC50: it is the concentration at which inhibition is half-maximal. Low readings indicate greater potency in that assay, high ones weaker potency in that assay.

Source of the values: patent US11891405B2, “Furo[3,4-b]pyrrole-containing BTK inhibitor” (CHIA TAI TIANQING PHARMACEUTICAL GROUP CO., LTD., priority 2018, dated 2024).
